Laboratory results published in paper PMC8599855, “Detection of cancer stem cells by EMT-specific biomarker-based peptide ligands” (Scientific Reports, 2021).
Read-outs that look alike come from different tables or passages of the source.

Columns and labels:
[1] = test system: SAS cells; test: AlamarBlue cell viability assay; type: cell-based, human; conditions: for IC50: Homo sapiens, AlamarBlue
Experimental: Figure 3 In vitro induction of EMT and stemness with Unc0642/IR. (a) SAS cells were treated with indicated concentration of Unc0642 and Unc0642 + 2 Gy of radiation for 72 h respectively. Cell viability was assessed by AlamarBlue assay. All data were normalized to cells without treatment. Data are presented as mean ± SD. IC50 was calculated using SigmaPlot12 software. (b) Western blot analysis of CSC and EMT markers in SAS cells treated with different concentration of Unc 0642 (1.25 and 10 µM) and different dose of radiation (2 and 4 Gy) respectively. Internal control: b-actin. Right graph: the quantification of protein expression levels normalized against b-actin levels in each sample. *p < 0.05; **p < 0.01 by Student’s t-test. The blots were cropped from different parts of the same gel. The original blots and all replicates are presented in Supplementary Fig. 4.
SAS-wt, SAS-EGFP-Fluc and SAS-E2-crimson-P2A::ttksr39 cells were seeded in a 96-well cell culture plate at the density of 5x10^3 cells/well overnight and incubated with serial dilutions of Unc0642 (the concentration of Unc0642 was 0.625, 1.25, 2.5, […], 5, 10, 20, 40, 80 μM respectively in culture medium). Plates were then incubated 48 hours at 37 °C under 5% CO2. Relative cell viabilities were determined by a AlamarBlue assay. 10% v/v of AlamarBlue (Serotec, Oxon, UK) was added into each well and the well containing culture medium without cells served as negative controls. Absorbance was measured at 570 nm against a reference wavelength at 600 nm using a microplate reader (Tecan, Infinite 200 pro, Zürich, Switzerland) after incubation for 24 h at 37°C. Results were presented as the percentage of AlamarBlue reduction and were corrected to background values of negative controls. IC50 values were calculated from a log([drug]) versus normalized response curve fit using SigmaPlot12.

[2] = test system: SAS cells; test: Western blot of EMT/CSC markers after in vitro induction of EMT; type: cell-based, human
Experimental: To induce the EMT of SAS cells, cells were seeded in 60 mm^2 dishes at the density of 1 × 10^6 cells/dish overnight and incubated with 1.25 and 10 μM Unc0642. After 24 h, cells were exposed under 2 Gy and 4 Gy of radiation by a RS2000 Series Biological Irradiator (Rad Source Technologies Inc, Buford, GA, USA) and replaced with fresh Unc0642 containing medium every 24 h. The expression of vimentin and E-cadherin were detected by western blotting.
Cultured cells were placed on ice, washed by ice-cold PBS and lysed using CytoBuster Protein Extraction Reagent (cat. 71,009, Bedford, MA, USA) containing Protease Inhibitor Cocktail Set I (cat. 539131, Millipore, Bedford, MA, USA). Cells were then scraped, collected in Eppendorf tubes and the sonicated for 30 min. The lysate was spun down at 12,000 g for 10 min at 4 °C. The protein content was measured using Bradford reagent (BIO-RAD, Hercules, CA, USA). The equal amounts of protein (40 μg) were separated in SDS-PAGE gels (30% Acrylamide/Bis Solution, 29:1, cat. 1610157, BIO-RAD, Hercules, CA, USA) and transferred to PVDF membranes (cat. NEF1002001PK, Perkin-Elmer life sciences, Boston, MA, USA). For immunoblotting, membranes were cut in terms of the molecular weight range prior to hybridization with primary antibody for vimentin (GTX100619, GeneTex, Irvine, CA, USA), nucleolin (GTX132778, GeneTex, Irvine, CA, USA), E-cadherin (GTX50757, GeneTex, Irvine, CA, USA) and b-actin (GTX109639, GeneTex, Irvine, CA, USA) overnight at 4 °C and then incubated with horseradish peroxidase HRP-conjugate goat anti-rabbit IgG (GeneTex, Irvine, CA, USA). Protein signals were visualized using a LumiFast Chemiluminescence Detection Kit (cat. JT96-K001S, T-Pro Biotechnology, Taiwan). Image capture was performed on an ImageQuant LAS4000 biomolecular image (GE healthcare life, Chicago, IL, USA). The intensities of protein bands were quantitated using ImageJ Gel Analysis program. Quantification of protein expression was performed by Image J. b-actin was used as loading control.

[3] = Body weight of xenograft mice; type: in vivo, mouse
Experimental: All animal procedures were performed in accordance with the Guide for Care and Use of Laboratory Animals and National Yang-Ming University’s IACUC number was 1080110. Immunodeficient male mice (BALB/cAnNCrj-nu/nu, six weeks old, 20 gm) were provided by National Laboratory Animal Center (NLAC), NARLabs, Taiwan. Mice were group-housed (6 animals per cage) in individually ventilated cages (IVC) systems and had unlimited access to food and water. […] For establishment of xenografts, 2 × 10^6 SAS-EGFP-Fluc cells in 100 μL phosphate-buffered saline (PBS) were injected subcutaneously into the animal's right shoulder and 2 × 10^6 SAS-wt cells were injected into the left leg. Growth of the implanted tumors was monitored twice a week and tumor volumes were estimated from caliper measurements according to the following formula: tumor volume = (lengthÍwidth^2) Í0.523. When tumor size reached approximately 10 mm^3, the mice were randomized into four groups of five animals per group for the following treatments: (1) DMSO (1 ml/kg body weight), (2) Unc0642 (2.5 mg/kg body weight), (3) 2 Gy of radiation, (4) Unc0642 (2.5 mg/kg body weight) and 2 Gy of radiation. Mice were given Unc0642 (cat. SML1037, Sigma-Aldrich, St. Louis, MO) intraperitoneally (i.p) every two days for 3 times. […]

[4] = UNC0642 5 mg/kg body weight, UBC xenograft model, any time point post-treatment; cited from earlier work
Excerpt: In the current study, we successfully established a protocol for EMT induction via the combination of the G9a inhibitor and low-dose IR. G9a, mainly catalyzes histone H3K9 methylation, is shown to be overexpressed in many types of cancers, including gastric cancer, ovarian cancer, head and neck cancer, etc. Higher G9a expression levels represent higher methylation levels, thus leading to the transcriptional repression of tumor-suppressor genes and are also associated with poor prognosis in patients. Liu et al. explored that snail-induced EMT and repression of E-cadherin in head and neck sq ...

With COc1cc2c(NC3CCN(C(C)C)CC3)nc(N3CCC(F)(F)CC3)nc2cc1OCCCN1CCCC1 [Unc0642] the “Effect on cell proliferation at the peak dose” value ([1]; 1.25 μM Unc0642, single treatment or combined with IR, SAS cells) was “could induce cell proliferation”, the IC50 ([1]; SAS cells exposed to Unc0642 alone for 72 h, normalized to untreated cells, SigmaPlot12 fit, read-out: IC50 (50% inhibition concentration), cell viability) was 12.1 µM and the IC50 ([1]; SAS cells, Unc0642 combined with 4 Gy of IR, 72 h, read-out: IC50, cell viability, combined with IR) was 4.79 µM. For the same compound, the Vimentin expression ([2]; 1.25 μM Unc0642, western blot) was “increased”, the Nucleolin level ([2]; 1.25 μM Unc0642, western blot, p < 0.05) was “slightly increased” and the Vimentin expression ([2]; 10 μM Unc0642, western blot) was “almost unchanged”. The “Vimentin expression versus control SAS cells” value ([2]; 2 Gy of IR and 1.25 μM Unc0642, western blot normalized to b-actin, p < 0.01) was “~ twofold”, the E-cadherin protein expression ([2]; Unc0642 alone, western blot) was “diminished protein expression level” and the “Body weight versus DMSO control” value ([3]; Unc0642 2.5 mg/kg i.p. alone) was “no difference”. For the same compound, the Body weight ([3]; combined Unc0642 2.5 mg/kg i.p. and 2 Gy IR, until end point, p < 0.001) was “Drastic weight loss” and the “Body weight versus vehicle-treated group” value [4] was “no significant weight changes”.
